Experimental data published in article PMC5046105, “Improved affinity at the cost of decreased specificity: a recurring theme in PDZ-peptide interactions” (Scientific Reports, 2016).
Ends that are not written are not given here.

Columns and labels:
[1] = target: T1, pWT PDZ2 (pseudo wild type SAP97 PDZ2, I342W/C378A) (Homo sapiens, UniProt Q12959, C378A/I342W); experiment: Stopped-flow binding kinetics, peptide with pWT PDZ2; settings: for Kd: Kd = koff/kon, ± propagated standard error; for Kd / koff: pH 7.5, 10 °C; for kon: Trp342 fluorescence, 1 µM PDZ, peptide 2–40 µM, N-acetylated peptide, 50 mM potassium phosphate pH 7.5, 10 °C; for kon / koff: value ± standard error; for koff: displacement of pre-formed complex (1 µM PDZ, 2 µM peptide) with 100 and 150 µM dansylated RRRETQV peptide
T1 construct: constituting SAP97 residues 311–407 and the mutations I342W and C372A; His-tagged lipoyl protein domain (N, cleaved yes); made in house
T1 sequence (Q12959 311-407 I342W/C378A): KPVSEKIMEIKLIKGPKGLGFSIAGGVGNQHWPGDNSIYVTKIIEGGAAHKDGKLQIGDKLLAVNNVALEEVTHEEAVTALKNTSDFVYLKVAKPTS
Procedure: (§1) The basic experimental parameters determined were the rate constants of association (kon) and dissociation (koff) for each peptide and for all PDZ variants, respectively, in a procedure described in Fig. 2 for the interaction between PDZØ9 and the EKKHTLL peptide as an example.
(§2) Figure 2 Determination of the two rate constants kon and koff for PDZØ9 binding to the EKKHTLL peptide. kon and koff were determined in separate experiments using stopped-flow spectroscopy and monitoring the change in Trp fluorescence upon binding. (a) The experimental trace was obtained by averaging of three individual experiments in which 11 μM of the EKKHTLL peptide was mixed with 1 μM PDZØ9. The trace was fitted to a single exponential function to obtain the observed rate constant, kobs. […] (c) In a displacement reaction a pre-formed complex between PDZØ9 (1 μM) and the EKKHTLL peptide (2 μM) was mixed with a large excess of dansyl-labeled peptide corresponding to the C-terminal […] of HPV18 E6 (150 μM). […] At high concentrations of dansylated peptide, none of the dissociated EKKHTLL will re-bind, and fitting to a single exponential function returns a kobs value which is equal to the dissociation rate constant, koff, of the pre-formed complex.
(§3) All of the stopped-flow experiments conducted in order to measure the rate constants for the peptide/PDZ interactions, were performed on an SX-20 MV stopped-flow spectrometer (Applied Photophysics Leatherhead, UK) at 10 °C in 50 mM potassium phosphate buffer, pH 7.5. Fluorescence was monitored using the change in emission of Trp342 in the PDZ variants (excitation at 280 nm; emission at 330 ± 30 nm). The peptides were N-acetylated (Ontores Biotechnologies) and the concentration of the respective stock solution was determined with either absorbance, quantitative amino acid analysis or direct detect (EMD Millipore). The rate constants of association, kon, and dissociation, koff, were determined in separate experiments. […] For each PDZ variant the kobs values were plotted versus the concentration of peptide and fitted to the general equation for a reversible bimolecular interaction[38][39] from which kon was derived. The koff was measured in a displacement experiment in which a pre-formed complex of PDZ variant (1 μM) and peptide (2 μM) was mixed with high concentrations of a dansylated RRRETQV-peptide (100, and 150 μM), which competes with the unlabelled peptide for binding to the PDZ. […] The kobs value at high peptide concentration is equal to the overall koff value, as described previously.

pWT PDZ2 K392M = target: T2, pWT PDZ2 K392M (Homo sapiens, UniProt Q12959, C378A/I342W/K392M); experiment: Stopped-flow binding kinetics, peptide with pWT PDZ2 K392M; settings: for Kd: Kd = koff/kon, ± propagated standard error; for Kd / koff: pH 7.5, 10 °C; for kon: Trp342 fluorescence, 1 µM PDZ, peptide 2–40 µM, N-acetylated peptide, 50 mM potassium phosphate pH 7.5, 10 °C, value ± standard error (EKKHTLL: mean of two experiments); for koff: displacement of pre-formed complex (1 µM PDZ, 2 µM peptide) with 100 and 150 µM dansylated RRRETQV peptide, value ± standard error
T2 construct: constituting SAP97 residues 311–407 and the mutations I342W and C372A; His-tagged lipoyl protein domain (N, cleaved yes); made in house
T2 sequence (Q12959 311-407 I342W/C378A/K392M): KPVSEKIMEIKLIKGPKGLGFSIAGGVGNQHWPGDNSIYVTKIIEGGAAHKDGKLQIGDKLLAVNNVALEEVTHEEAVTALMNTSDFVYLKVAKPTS
Procedure: as §1, §2, §3

[2] = target: T3, PDZØ9 (pWT SAP97 PDZ2 L391F/K392M) (Homo sapiens, UniProt Q12959, C378A/I342W/K392M/L391F); experiment: Stopped-flow binding kinetics, peptide with PDZØ9; settings: for Kd: Kd = koff/kon, ± propagated standard error; for Kd / koff / kon: stopped-flow; for Kd / koff: pH 7.5, 10 °C; for koff: displacement of pre-formed complex (1 µM PDZ, 2 µM peptide) with 100 and 150 µM dansylated RRRETQV peptide; for koff / kon: value ± standard error; for kon: Trp342 fluorescence, 1 µM PDZ, peptide 2–40 µM, N-acetylated peptide, 50 mM potassium phosphate pH 7.5, 10 °C
T3 construct: constituting SAP97 residues 311–407 and the mutations I342W and C372A; His-tagged lipoyl protein domain (N, cleaved yes); made in house
T3 sequence (Q12959 311-407 I342W/C378A/L391F/K392M): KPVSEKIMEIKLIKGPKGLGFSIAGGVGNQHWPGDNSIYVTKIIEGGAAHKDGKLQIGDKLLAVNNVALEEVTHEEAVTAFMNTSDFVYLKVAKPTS
Procedure: as §1, §2, §3

pWT PDZ2 L391F = target: T4, pWT PDZ2 L391F (Homo sapiens, UniProt Q12959, C378A/I342W/L391F); experiment: Stopped-flow binding kinetics, peptide with pWT PDZ2 L391F; settings: for Kd: Kd = koff/kon, ± propagated standard error; for Kd / koff: pH 7.5, 10 °C; for kon: Trp342 fluorescence, 1 µM PDZ, peptide 2–40 µM, N-acetylated peptide, 50 mM potassium phosphate pH 7.5, 10 °C; for kon / koff: value ± standard error; for koff: displacement of pre-formed complex (1 µM PDZ, 2 µM peptide) with 100 and 150 µM dansylated RRRETQV peptide
T4 construct: constituting SAP97 residues 311–407 and the mutations I342W and C372A; His-tagged lipoyl protein domain (N, cleaved yes); made in house
T4 sequence (Q12959 311-407 I342W/C378A/L391F): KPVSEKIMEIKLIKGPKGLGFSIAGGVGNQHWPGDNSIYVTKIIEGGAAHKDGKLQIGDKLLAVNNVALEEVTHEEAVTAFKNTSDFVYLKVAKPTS
Procedure: as §1, §2, §3

## Ac-RRRETQV [RRRETQV, reference compound]
[1]
  Kd: 400 ± 5 nM
  kon: 8e+06 ± 40000 M⁻¹ s⁻¹
  koff: 3.2 ± 0.04 s⁻¹
pWT PDZ2 K392M
  Kd: 370 ± 3 nM
  kon: 9e+06 ± 40000 M⁻¹ s⁻¹
  koff: 3.3 ± 0.02 s⁻¹
[2]
  Kd: 60 ± 2 nM
  koff: 0.6 ± 0.015 s⁻¹
  kon: 9.8e+06 ± 50000 M⁻¹ s⁻¹
pWT PDZ2 L391F
  Kd: 70 ± 1 nM
  kon: 8.7e+06 ± 40000 M⁻¹ s⁻¹
  koff: 0.6 ± 0.01 s⁻¹

## Ac-YRRESAI [YRRESAI]
[1]
  Kd: 4600 ± 100 nM
  kon: 1.9e+07 ± 500000 M⁻¹ s⁻¹
  koff: 87 ± 0.5 s⁻¹
pWT PDZ2 K392M
  Kd: 4200 ± 100 nM
  kon: 2.5e+07 ± 700000 M⁻¹ s⁻¹
  koff: 105 ± 0.5 s⁻¹
[2]
  Kd: 770 ± 10 nM
  koff: 17 ± 0.2 s⁻¹
  kon: 2.2e+07 ± 200000 M⁻¹ s⁻¹
pWT PDZ2 L391F
  Kd: 790 ± 10 nM
  kon: 1.9e+07 ± 100000 M⁻¹ s⁻¹
  koff: 15 ± 0.2 s⁻¹

## dansyl-labeled peptide: dansyl-labeled peptide corresponding to the C-terminal six residues of HPV18 E6, competitor in displacement experiments (RRRETQV; also: dansyl label, position not given here) [reference compound]
[2]; 150 μM dansyl-labeled peptide, initial part of displacement trace
  kobs, binding of free PDZØ9 to the dansyl-labeled peptide: ~1000 s⁻¹

## Ac-VSKETPL [VSKETPL]
[1]
  Kd: 3900 ± 200 nM
  kon: 4e+07 ± 2.2e+06 M⁻¹ s⁻¹
  koff: 154 ± 3 s⁻¹
pWT PDZ2 K392M
  Kd: 6300 ± 600 nM
  kon: 2.4e+07 ± 2.2e+06 M⁻¹ s⁻¹
  koff: 150 ± 3 s⁻¹
[2]
  Kd: 750 ± 20 nM
  koff: 6.3 ± 0.2 s⁻¹
  kon: 8.4e+06 ± 60000 M⁻¹ s⁻¹
pWT PDZ2 L391F
  Kd: 800 ± 20 nM
  kon: 1.1e+07 ± 100000 M⁻¹ s⁻¹
  koff: 8.8 ± 0.2 s⁻¹
